What was measured:
histamine 4 receptor = histamine 4 receptor (Homo sapiens, UniProt Q9H3N8); conditions: background statement, U.S. Pat. No. 9,586,959; cited from earlier work
[1] = test system: inflammatory cells such as mast cells and eosinophils; conditions: background statement, U.S. Pat. No. 9,586,959; cited from earlier work
[2] = Stress testing at high temperature and high humidity; type: physicochemical; conditions: high temperature (60° C.) and high humidity (75%) for 4 weeks
[3] = Thermodynamic (thermal) stability of crystalline form; type: physicochemical; conditions: solid crystalline form
Method: TGA experiments were conducted using a TGA550 instrument from TA Instruments. About 1-10 mg of sample was loaded into a ceramic pan for the measurements. The sample temperature was ramped from 25 to 500° C. at 10° C./min. Nitrogen was used as the purge gas at a flow rate of 50 mL/min.
DSC: Heating rate of 10° C./min under a nitrogen atmosphere. About 1-2 mg of sample was loaded into an open aluminum pan for the measurements. Instrument Q20 from TA Instruments.

[4] = Stability of polymorphic form during gentle drying; type: physicochemical; conditions: pure polymorphic forms from crystallization experiments

Sequence of histamine 4 receptor (Q9H3N8 whole entry): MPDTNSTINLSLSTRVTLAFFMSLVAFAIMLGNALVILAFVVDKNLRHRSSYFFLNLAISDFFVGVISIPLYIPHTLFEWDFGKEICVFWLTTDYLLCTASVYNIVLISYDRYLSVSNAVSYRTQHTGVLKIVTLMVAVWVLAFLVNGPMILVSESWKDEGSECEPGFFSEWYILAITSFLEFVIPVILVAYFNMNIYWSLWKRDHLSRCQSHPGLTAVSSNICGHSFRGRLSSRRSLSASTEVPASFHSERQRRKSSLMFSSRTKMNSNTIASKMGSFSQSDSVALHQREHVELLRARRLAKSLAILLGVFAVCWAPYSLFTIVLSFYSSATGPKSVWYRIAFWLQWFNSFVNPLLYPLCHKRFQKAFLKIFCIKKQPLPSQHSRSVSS

Compound | histamine 4 receptor inhibitory effect (histamine 4 receptor) | effects against histamine induced infiltration of inflammatory cells [1] | stability during stress testing [2] | thermodynamically stable up to [3] | stability during gentle drying [4]
CNC1CN(c2nc3ncc(Br)cc3n3cnnc23)C1 [1-(8-bromopyrido[2,3-e][1,2,4]triazolo[4,3-a]pyrazin-4-yl)-N-methylazetidin-3-amine] | strong | suppressive effects | – | – | –
CNC1CN(c2nc3ncc(Br)cc3n3cnnc23)C1 [Form A, 1-(8-bromopyrido[2,3-e][1,2,4]triazolo[4,3-a]pyrazin-4-yl)-N-methylazetidine-3-amine] | – | – | stable | up to 273 °C | stable

From US20260085071A1, “NOVEL CRYSTALLINE FORM OF 1-(8-BROMOPYRIDO[2,3- E][1,2,4]TRIAZOLO[4,3-A]PYRAZIN-4-YL)-NMETHYLAZETIDIN- 3-AMINE” (JW PHARMACEUTICAL CORPORATION, priority 2022, published 2026)
